Assay results: US10294202B2, “Pyrrolidinones as herbicides” (FMC Corporation, priority 2013, dated 2019)

Legend:
velvetleaf = assay: Test A pre-/postemergence herbicide test; format: in vivo, Abutilon theophrasti; conditions: for Velvetleaf plant response rating: Preemergence, visual rating on 0 to 100 scale (0 no effect, 100 complete control)
Method in brief: (§1)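 Greenhouse pot test with pre- and postemergence application of surfactant-containing solvent formulations. Postemergence plants were 2–10 cm, one- to two-leaf stage. Response scored visually after ~10 days, 0 (no effect) to 100 (complete control).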

pigweed = assay: Test A pre-/postemergence herbicide test; format: in vivo, Amaranthus retroflexus; conditions: for Pigweed plant response rating: Preemergence, visual rating on 0 to 100 scale (0 no effect, 100 complete control)
Method in brief: as §1

ducksalad = assay: Test B flooded paddy test; format: in vivo, Heteranthera limosa; conditions: 250 g ai/ha, Flood; scale of 0 to 100 where 0 is no effect and 100 is complete control
Method in brief: (§2)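 Plants were grown to the 2-leaf stage, then pots were flooded to 3 cm above the soil and compound was applied directly into the paddy water, with that depth held throughout. After 13 to 15 days in a greenhouse, injury was rated visually against untreated controls on a 0 to 100 scale (100 = complete control).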

sedge, umbrella = assay: Test B flooded paddy test; format: in vivo, Cyperus difformis; conditions: 250 g ai/ha, Flood; scale of 0 to 100 where 0 is no effect and 100 is complete control
Method in brief: as §2

crabgrass, large = assay: Test A pre-/postemergence herbicide test; format: in vivo, Digitaria sanguinalis; conditions: for Crabgrass, Large plant response rating: Preemergence, visual rating on 0 to 100 scale (0 no effect, 100 complete control)
Method in brief: as §1

rice = assay: Test B flooded paddy test; format: in vivo, Oryza sativa; conditions: 250 g ai/ha, Flood; scale of 0 to 100 where 0 is no effect and 100 is complete control
Method in brief: as §2

corn = assay: Test A pre-/postemergence herbicide test; format: in vivo, Zea mays; conditions: for Corn plant response rating: Preemergence, visual rating on 0 to 100 scale (0 no effect, 100 complete control)
Method in brief: as §1

morningglory = assay: Test A pre-/postemergence herbicide test; format: in vivo, Ipomoea spp.; conditions: for Morningglory plant response rating: Preemergence, visual rating on 0 to 100 scale (0 no effect, 100 complete control)
Method in brief: as §1

barnyardgrass [1] = assay: Test A pre-/postemergence herbicide test; format: in vivo, Echinochloa crus-galli; conditions: for Barnyardgrass plant response rating: Preemergence, visual rating on 0 to 100 scale (0 no effect, 100 complete control)
Method in brief: as §1

wheat = assay: Test A pre-/postemergence herbicide test; format: in vivo, Triticum aestivum; conditions: for Wheat plant response rating: Preemergence, visual rating on 0 to 100 scale (0 no effect, 100 complete control)
Method in brief: as §1

giant foxtail = assay: Test A pre-/postemergence herbicide test; format: in vivo, Setaria faberii; conditions: for Foxtail, Giant plant response rating: Preemergence, visual rating on 0 to 100 scale (0 no effect, 100 complete control)
Method in brief: as §1

barnyardgrass [2] = assay: Test B flooded paddy test; format: in vivo, Echinochloa crus-galli; conditions: 250 g ai/ha, Flood; scale of 0 to 100 where 0 is no effect and 100 is complete control
Method in brief: as §2

[3] = Postemergence, 125 g ai/ha, 0 to 100 scale, 0 no effect, 100 complete control
[4] = Postemergence, 500 g ai/ha, 0 to 100 scale (0 no effect, 100 complete control)
[5] = preemergence, 500 g ai/ha, 0 to 100 scale
[6] = preemergence, 500 g ai/ha, 0 to 100 scale (0 no effect, 100 complete control)

SMILES | Plant response rating, Velvetleaf (velvetleaf; [3]) | Plant response rating, Velvetleaf (velvetleaf; [4]) | Velvetleaf plant response rating (velvetleaf; 125 g ai/ha) | Plant response rating, Velvetleaf (velvetleaf; [5]) | Plant response rating, Pigweed (pigweed; [3]) | Plant response rating, Pigweed (pigweed; [4]) | Pigweed plant response rating (pigweed; 125 g ai/ha) | Plant response rating, Pigweed (pigweed; [5]) | Plant response rating, Ducksalad (ducksalad) | Plant response rating, Sedge, Umbrella (sedge, umbrella) | Plant response rating, Crabgrass, Large (crabgrass, large; [3]) | Plant response rating, Crabgrass, Large (crabgrass, large; [4]) | Crabgrass, Large plant response rating (crabgrass, large; 125 g ai/ha) | Plant response rating, Crabgrass, Large (crabgrass, large; [5]) | Plant response rating, Rice (rice) | Plant response rating, Corn (corn; [3]) | Plant response rating, Corn (corn; [4]) | Corn plant response rating (corn; 125 g ai/ha) | Plant response rating, Corn (corn; [5]) | Plant response rating, Morningglory (morningglory; [3]) | also measured
COc1cccc(NC(=O)C2C(=O)NCC2c2ccc(F)c(F)c2)n1 (stereo not drawn) [Compound 58] | 0 | 0 | 0 | 0 | 0 | 0 | 0 | 0 | 0 | 0 | 40 | 80 | 70 | 90 | 0 | 0 | 0 | 0 | 0 | 0 | Plant response rating, Morningglory (morningglory; [4]): 0; Morningglory plant response rating (morningglory; 125 g ai/ha): 0; Plant response rating, Morningglory (morningglory; [5]): 0; Plant response rating, Barnyardgrass (barnyardgrass [1]; [3]): 0; Plant response rating, Barnyardgrass (barnyardgrass [1]; [4]): 0; Barnyardgrass plant response rating (barnyardgrass [1]; 125 g ai/ha): 0; Plant response rating, Barnyardgrass (barnyardgrass [1]; [6]): 20; Plant response rating, Wheat (wheat; [3]): 0; Plant response rating, Wheat (wheat; [4]): 0; Wheat plant response rating (wheat; 125 g ai/ha): 0; Plant response rating, Wheat (wheat; [5]): 0; Plant response rating, Foxtail, Giant (giant foxtail; [3]): 20; Plant response rating, Foxtail, Giant (giant foxtail; [4]): 70; Foxtail, Giant plant response rating (giant foxtail; 125 g ai/ha): 20; Plant response rating, Foxtail, Giant (giant foxtail; [5]): 80; Plant response rating, Barnyardgrass (barnyardgrass [2]): 0
O=C1NCC(c2ccccc2)C1C(=O)Nc1cccc(F)c1F (stereo not drawn) [Compound 65] | 0 | 30 | 0 | 0 | 0 | 0 | 0 | 0 | 80 | 40 | 90 | 90 | 90 | 90 | 0 | 0 | 20 | 0 | 0 | 0 | Plant response rating, Morningglory (morningglory; [4]): 20; Morningglory plant response rating (morningglory; 125 g ai/ha): 0; Plant response rating, Morningglory (morningglory; [5]): 0; Plant response rating, Barnyardgrass (barnyardgrass [1]; [3]): 20; Plant response rating, Barnyardgrass (barnyardgrass [1]; [4]): 70; Barnyardgrass plant response rating (barnyardgrass [1]; 125 g ai/ha): 40; Plant response rating, Barnyardgrass (barnyardgrass [1]; [6]): 90; Plant response rating, Wheat (wheat; [3]): 0; Plant response rating, Wheat (wheat; [4]): 20; Wheat plant response rating (wheat; 125 g ai/ha): 0; Plant response rating, Wheat (wheat; [5]): 0; Plant response rating, Foxtail, Giant (giant foxtail; [3]): 50; Plant response rating, Foxtail, Giant (giant foxtail; [4]): 90; Foxtail, Giant plant response rating (giant foxtail; 125 g ai/ha): 80; Plant response rating, Foxtail, Giant (giant foxtail; [5]): 90; Plant response rating, Barnyardgrass (barnyardgrass [2]): 0
